Publication PMC9760738, “Pharmacokinetics, absorption, distribution, metabolism and excretion of the MEK inhibitor zapnometinib in rats” (Frontiers in Pharmacology, 2022)
“And” between values parts separate entries of the source, which are not always exact repeats. Equal values may be shown once.

Experiments:
[1] = Plasma total radioactivity pharmacokinetics after single oral 30 mg/kg [14C]-zapnometinib, Sprague-Dawley rats (Group 1); assay type: in vivo, rat
Procedure: (§1) Oral doses of [^14C]-zapnometinib were administered as a suspension in 5% DMSO (v/v), 30% PEG 400 (v/v) and 7.5% (w/v) Captisol in water at a dose level of 30 mg/kg to male and female rats by gastric intubation at a dose volume of 4 ml/kg body weight. The selected dose level (30 mg/kg) was below the no observed adverse effect level (100 mg/kg), the formulation was selected based on data obtained in other nonclinical studies. The radioactive dose administered to each animal was quantified from the weight (excretion studies only) or volume of dosing formulation given, and its mean measured radioactivity concentration. The weight of test compound administered to each rat was determined from the radioactive dose administered and the specific activity of the test material.
After single oral doses of [^14C]-zapnometinib to three male and three female rats, a blood sample (ca 220 µL) was taken from each animal, via the jugular or tail vein at each of the following time points: 0.25, 0.5, 1, 2, 4, 8, 24, 48, 72, 96, 120 and 168 h after dose administration. All blood samples were delivered into K2EDTA tubes and centrifuged (ca 2000 ×g at 4°C for 10 min) to obtain plasma; blood cells were discarded. After collection of the terminal sample, rats were killed by cervical dislocation and the carcasses discarded.
Radioactivity was measured by liquid scintillation analysis using Wallac® 1409 automatic liquid scintillation counters. Samples were prepared according to the company’s SOP (see Supplementary Methods). Briefly, replicate weighed samples were mixed with Ultima Gold™ scintillation cocktail (PerkinElmer, United States) for the measurement of radioactivity. Radioactivity in amounts less than twice that of the background concentration in the sample under investigation was below the limit of accurate quantification (BLQ).
Weight, volume, and radioactivity concentration (liquid scintillation analysis) results relating to the analysis of biological samples generated during this study were acquired and processed using DEBRA, a Laboratory Information Management System (v 5.5.4). Pharmacokinetic parameters were calculated using the computer program Phoenix™ WinNonlin version 8.3 (Pharsight Corporation, United States). Areas under the mean plasma radioactivity concentration-time curves up to the time of the last quantifiable sample (AUC0-t) were estimated by the linear trapezoidal rule. Areas under the mean plasma radioactivity concentration-time curves to infinite time (AUC0-inf) were calculated using the expression: AUC0-inf = AUC0-t + Ct/λz, where Ct is the last measurable concentration and λz is the elimination rate constant estimated using log-linear regression during the terminal elimination phase. Statistical evaluation was limited to basic expressions of variation such as means and standard deviation.

[2] = set-up: method as in Lorusso et al., 2005; conditions: acid metabolite after CI-1040 dosing in patients; ref Lorusso et al., 2005; cited from earlier work
[3] = Plasma protein binding assay, dog plasma; assay type: in vitro ADME; conditions: data not shown
[4] = Plasma protein binding assay, human plasma; assay type: in vitro ADME; conditions: data not shown
[5] = from other nonclinical studies; cited from earlier work
[6] = Excretion balance of radioactivity after single oral 30 mg/kg [14C]-zapnometinib, Sprague-Dawley rats (Group 2); assay type: in vivo, rat; conditions: for Total recovery: 0-168 h; for Carcass: 168 h
Procedure: as §1
Total excreta from three male and three female rats were collected after single oral doses of [^14C]-zapnometinib. Urine was collected into containers cooled in solid CO2 and feces were collected separately at ambient temperature. Expired air was trapped in 1M potassium hydroxide solution. After completion of the final excreta collection, rats were killed by cervical dislocation following sedation, and the carcasses retained for analysis.
Radioactivity was measured by liquid scintillation analysis using Wallac® 1409 automatic liquid scintillation counters. Samples were prepared according to the company’s SOP (see Supplementary Methods). Briefly, replicate weighed samples were mixed with Ultima Gold™ scintillation cocktail (PerkinElmer, United States) for the measurement of radioactivity. Radioactivity in amounts less than twice that of the background concentration in the sample under investigation was below the limit of accurate quantification (BLQ). […]
For Liquid scintillation analyses, carcasses from rats (Group 2) were solubilized by digestion at ca 55 °C overnight in a solution prepared from sodium hydroxide (80 g) and Triton X-405 (100 mL) in purified water (600 mL) and methanol (300 mL). After measurement of total sample weight (as appropriate), replicate portions of diluted dose solutions (ca 0.1 mL), plasma (ca 0.05 – 0.25 mL), urine (ca 0.05 – 0.25 mL), expired air trap solution (ca 1 mL) and cage wash (ca 1 mL) were mixed directly with Ultima Gold scintillation cocktail (5 mL; 15 mL for air traps) for measurement of radioactivity concentrations. Similarly, replicate weighed portions of digested carcass solutions (ca 1 mL plus 1 mL purified water) were mixed with Ultima Gold (10 mL) scintillation cocktail for measurement of radioactivity concentrations. Feces were weighed, then homogenized to a smooth paste after the addition of an appropriate volume (approximately 1.5 volumes) of purified water and the weight of each homogenate was recorded. Replicate weighed portions of feces (ca 0.2 g) and blood cells (ca. 0.25 g) were placed on Combustocones, which were then capped with cellulose pads and burned in oxygen using […]

[7] = Plasma protein binding assay, rat plasma; assay type: in vitro ADME; conditions: data not shown
[8] = individual males 7M, 8M, 9M, rows in order of periods 0-24, 0-48, 0-72, 0-96, 0-120, 0-144, 0-168 h

O=C(O)c1ccc(F)c(F)c1Nc1ccc(I)cc1Cl [zapnometinib, 2-(2-Chloro-4-iodophenylamino)-3,4-difluorobenzoic acid]
Mean plasma radioactivity concentration ([1]; 48 h post dose, females): 0.650 μg equivs/ml | Mean plasma radioactivity concentration ([1]; 48 h post dose, males): 0.724 μg equivs/ml | Mean plasma radioactivity concentration ([1]; 168 h post dose, females): 0.049 μg equivs/ml | Mean plasma radioactivity concentration ([1]; 168 h post dose, males): 0.054 μg equivs/ml | Plasma radioactivity at 168 h as % of Cmax ([1]; females): ~0.04% | Plasma radioactivity at 168 h as % of Cmax ([1]; males): ~0.06% | AUC0-t females versus males ([1]; total plasma radioactivity): 1.4 fold | Cmax females versus males ([1]; total plasma radioactivity): 1.5 fold | Plasma concentrations relative to those of CI-1040 [2]: approximately 30 fold | Protein binding [3]: high protein binding | Unbound fraction [3]: very low | Protein binding [4]: high protein binding | Unbound fraction [4]: very low | No observed adverse effect level [5]: 100 mg/kg | Cumulative excretion, urine ([6]; 0-6 h, male, mean): 0.23 % administered dose | Cumulative excretion, faeces ([6]; 0-24 h, male, mean): 79.34 % administered dose | Cumulative excretion, urine ([6]; 0-24 h, male, mean): 2.20 % administered dose | Cumulative, cage wash ([6]; 0-24 h, male, mean): 0.14 % administered dose | Cumulative, expired air ([6]; 0-24 h, male, mean): 0.02 % administered dose | Cumulative excretion, faeces ([6]; 0-48 h, male, mean): 89.32 % administered dose | Cumulative excretion, urine ([6]; 0-48 h, male, mean): 2.68 % administered dose | Cumulative, cage wash ([6]; 0-48 h, male, mean): 0.18 % administered dose | Cumulative, expired air ([6]; 0-48 h, male, mean): 0.02 % administered dose | Cumulative excretion, faeces ([6]; 0-72 h, male, mean): 90.12 % administered dose | Cumulative excretion, urine ([6]; 0-72 h, male, mean): 2.77 % administered dose | Cumulative, cage wash ([6]; 0-72 h, male, mean): 0.19 % administered dose | Cumulative, expired air ([6]; 0-72 h, male, mean): 0.02 % administered dose | Cumulative excretion, faeces ([6]; 0-96 h, male, mean): 90.28 % administered dose | Cumulative excretion, urine ([6]; 0-96 h, male, mean): 2.80 % administered dose | Cumulative, cage wash ([6]; 0-96 h, male, mean): 0.21 % administered dose | Cumulative excretion, faeces ([6]; 0-120 h, male, mean): 90.34 % administered dose | Cumulative excretion, urine ([6]; 0-120 h, male, mean): 2.82 % administered dose | Cumulative, cage wash ([6]; 0-120 h, male, mean): 0.21 % administered dose | Cumulative excretion, faeces ([6]; 0-144 h, male, mean): 90.37 % administered dose | Cumulative excretion, urine ([6]; 0-144 h, male, mean): 2.83 % administered dose | Cumulative, cage wash ([6]; 0-144 h, male, mean): 0.21 % administered dose | Total recovery ([6]; female, mean): 98.26 % Administered dose | Total recovery ([6]; male, mean): 93.72 % Administered dose | Carcass ([6]; female, mean): 0.19 % Administered dose | Carcass ([6]; male, mean): 0.20 % Administered dose | Radioactivity in carcasses ([6]; 168 h post dose, both sexes): ~0.2% | Cumulative, expired air ([6]; individual males 7M, 8M, 9M, periods 0-24, 0-48, 0-72 h): 0.02 % administered dose | Cumulative excretion, urine ([6]; individual males 7M, 8M, 9M, rows in order of periods 0-6, 0-24, 0-48, 0-72, 0-96, 0-120, 0-144, 0-168 h): 0.23 % administered dose and 0.16 % administered dose and 0.30 % administered dose and 2.69 % administered dose and 1.99 % administered dose and 1.92 % administered dose and 3.13 % administered dose and 2.48 % administered dose and 2.43 % administered dose and 3.20 % administered dose and 2.55 % administered dose and 2.56 % administered dose and 3.22 % administered dose and 2.58 % administered dose and 2.61 % administered dose and 3.23 % administered dose and 2.59 % administered dose and 2.63 % administered dose and 3.24 % administered dose (2×) and 2.60 % administered dose (2×) and 2.64 % administered dose and 2.65 % administered dose | Cumulative excretion, faeces [6, 8]: 81.33 % administered dose and 77.94 % administered dose and 78.75 % administered dose and 90.61 % administered dose and 88.87 % administered dose and 88.48 % administered dose and 91.30 % administered dose and 89.52 % administered dose and 89.53 % administered dose and 91.37 % administered dose and 89.65 % administered dose and 89.82 % administered dose and 91.41 % administered dose and 89.69 % administered dose and 89.92 % administered dose and 91.44 % administered dose and 89.72 % administered dose and 89.96 % administered dose and 91.46 % administered dose and 89.89 % administered dose and 89.99 % administered dose | Cumulative, cage wash [6, 8]: 0.14 % administered dose (2×) and 0.16 % administered dose (4×) and 0.11 % administered dose and 0.22 % administered dose and 0.19 % administered dose and 0.23 % administered dose (5×) and 0.20 % administered dose and 0.15 % administered dose and 0.24 % administered dose (3×) and 0.26 % administered dose and 0.17 % administered dose | Protein binding [7]: high protein binding | Unbound fraction [7]: very low
